Laboratory results from PubChem BioAssay AID248 (DTP/NCI, 2004).
Values joined by “and” are separate entries in the source; they are usually repeats but may differ in a detail not shown here. Equal entries are not always repeated. Inconclusive results and toxic doses are left out. Cut-off read from the data, not from the text of the source: active = T/C of 150% or more; inactive = T/C below 125%.

System: L1210 leukemia ip in BDF1 mice, survival T/C
Experiment: NCI In Vivo Anticancer Drug Screen. Data for tumor model L1210 Leukemia (intraperitoneal) in B6D2F1 (BDF1) mice
Settings: endpoint: mean survival time, higher = longer survival
Method in brief: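 Transplantable tumor model; survival measured in treated vs vehicle control mice. Value = treated/control.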

[1] = dose: 100.0 mg/kg/injection, schedule: Q04DX003 (ip), vehicle: saline with Tween-80
[2] = dose: 200.0 mg/kg/injection, schedule: Q04DX003 (ip), vehicle: saline with Tween-80
[3] = dose: 400.0 mg/kg/injection, schedule: Q04DX003 (ip), vehicle: saline with Tween-80
[4] = dose: 100.0 mg/kg/injection, schedule: Q01DX001 (ip), vehicle: carboxymethylcellulose (CMC)
[5] = dose: 200.0 mg/kg/injection, schedule: Q01DX001 (ip), vehicle: carboxymethylcellulose (CMC)
[6] = dose: 400.0 mg/kg/injection, schedule: Q01DX001 (ip), vehicle: carboxymethylcellulose (CMC)
[7] = dose: 200.0 mg/kg/injection, schedule: Q01DX009 (ip), vehicle: saline with Tween-80
[8] = dose: 400.0 mg/kg/injection, schedule: Q01DX009 (ip), vehicle: saline with Tween-80
[9] = dose: 50.0 mg/kg/injection, schedule: Q01DX001 (ip), vehicle: saline
[10] = dose: 100.0 mg/kg/injection, schedule: Q01DX001 (ip), vehicle: saline
[11] = dose: 100.0 mg/kg/injection, schedule: Q01DX001 (ip), vehicle: acetone
[12] = dose: 200.0 mg/kg/injection, schedule: Q01DX001 (ip), vehicle: acetone
[13] = dose: 400.0 mg/kg/injection, schedule: Q01DX001 (ip), vehicle: acetone
[14] = dose: 75.0 mg/kg/injection, schedule: Q01DX001 (ip), vehicle: other
[15] = dose: 100.0 mg/kg/injection, schedule: Q01DX009 (ip), vehicle: saline with Tween-80
[16] = dose: 200.0 mg/kg/injection, schedule: Q01DX001 (ip), vehicle: saline
[17] = dose: 400.0 mg/kg/injection, schedule: Q01DX001 (ip), vehicle: saline

Measured: T/C

COc1ccc(CC(=O)NC(N)=O)cc1
inactive: [1] 101 % of control | [2] 97 % of control | [3] 90 % of control

NCc1cc[n+]([O-])cc1
inactive: dose: 25.0 mg/kg/injection, schedule: Q04DX002 (ip), vehicle: saline 102 % of control | dose: 50.0 mg/kg/injection, schedule: Q04DX002 (ip), vehicle: saline 102 % of control | dose: 100.0 mg/kg/injection, schedule: Q04DX002 (ip), vehicle: saline 102 % of control | dose: 400.0 mg/kg/injection, schedule: Q04DX002 (ip), vehicle: saline 88 % of control

CC(=O)c1cccc(OC(=O)Nc2ccc(Cl)cc2)c1
inactive: [4] 89 % of control | dose: 100.0 mg/kg/injection, schedule: Q01DX009 (ip), vehicle: carboxymethylcellulose (CMC) 101 % of control and 102 % of control | dose: 100.0 mg/kg/injection, schedule: Q04DX003 (ip), vehicle: carboxymethylcellulose (CMC) 92 % of control and 90 % of control | [5] 94 % of control | dose: 200.0 mg/kg/injection, schedule: Q01DX009 (ip), vehicle: carboxymethylcellulose (CMC) 98 % of control and 90 % of control | dose: 200.0 mg/kg/injection, schedule: Q04DX003 (ip), vehicle: carboxymethylcellulose (CMC) 95 % of control and 97 % of control | [6] 89 % of control | dose: 400.0 mg/kg/injection, schedule: Q01DX009 (ip), vehicle: carboxymethylcellulose (CMC) 98 % of control and 88 % of control | dose: 400.0 mg/kg/injection, schedule: Q04DX003 (ip), vehicle: carboxymethylcellulose (CMC) 90 % of control

C=CCOC(OCC=C)C(OCC=C)OCC=C
inactive: [7] 97 % of control | [8] 104 % of control

C/C(=N\[N+](C)(C)C)c1ccc(C)cc1
inactive: dose: 12.5 mg/kg/injection, schedule: Q01DX001 (ip), vehicle: saline 112 % of control | dose: 25.0 mg/kg/injection, schedule: Q01DX001 (ip), vehicle: saline 104 % of control | dose: 25.0 mg/kg/injection, schedule: Q04DX003 (ip), vehicle: saline 107 % of control | [9] 108 % of control | dose: 50.0 mg/kg/injection, schedule: Q04DX003 (ip), vehicle: saline 100 % of control | [10] 101 % of control | dose: 100.0 mg/kg/injection, schedule: Q04DX003 (ip), vehicle: saline 105 % of control

COc1ccc(CN2CCCN(Cc3ccc(OC)cc3)C2c2cc(Br)c(OC)c(OC)c2)cc1
inactive: [11] 94 % of control | [12] 94 % of control | [13] 94 % of control

COC(C#N)(Cc1ccccc1)Cc1ccccc1
inactive: [14] 92 % of control | dose: 150.0 mg/kg/injection, schedule: Q01DX001 (ip), vehicle: other 95 % of control

CCN(C(=O)Nc1ccccc1)c1ccccc1C
inactive: [15] 97 % of control | [1] 111 % of control | [7] 86 % of control | [2] 98 % of control | [8] 92 % of control | [3] 102 % of control

O=C(NC(c1ccccc1)C(NC(=O)c1ccccc1)c1ccccc1)c1ccccc1 (centres undefined)
inactive: dose: 100.0 mg/kg/injection, schedule: Q01DX001 (ip), vehicle: Klucel (hydroxypropylcellulose) (HPC) 99 % of control | dose: 200.0 mg/kg/injection, schedule: Q01DX001 (ip), vehicle: Klucel (hydroxypropylcellulose) (HPC) 99 % of control | dose: 400.0 mg/kg/injection, schedule: Q01DX001 (ip), vehicle: Klucel (hydroxypropylcellulose) (HPC) 97 % of control

CCOC(=O)c1nc[nH]c1N=[N+]=[N-]
inactive: dose: 100.0 mg/kg/injection, schedule: Q01DX001 (ip), vehicle: other 106 % of control | dose: 200.0 mg/kg/injection, schedule: Q01DX001 (ip), vehicle: other 97 % of control | dose: 400.0 mg/kg/injection, schedule: Q01DX001 (ip), vehicle: other 95 % of control

O=C(O)c1ccc2c(c1)C(Br)(Br)C2(Br)Br
inactive: [15] 98 % of control | [7] 101 % of control | [8] 103 % of control

COC1CCCCC1I (centres undefined)
inactive: dose: 50.0 mg/kg/injection, schedule: Q01DX009 (ip), vehicle: saline with Tween-80 95 % of control | [15] 95 % of control | [7] 93 % of control

Cc1cccc2c1C(=S)NC2=O
inactive: dose: 100.0 mg/kg/injection, schedule: Q04DX002 (ip), vehicle: saline with Tween-80 103 % of control | dose: 200.0 mg/kg/injection, schedule: Q04DX002 (ip), vehicle: saline with Tween-80 100 % of control | dose: 400.0 mg/kg/injection, schedule: Q04DX002 (ip), vehicle: saline with Tween-80 89 % of control

CC/C(I)=C(/CC)S(=O)(=O)c1ccc(C)cc1
inactive: [10] 101 % of control | [15] 98 % of control | [16] 103 % of control | [7] 102 % of control | [17] 111 % of control | [8] 98 % of control

COc1ccccc1NC(=O)O/N=C/c1ccccn1
inactive: dose: 100.0 mg/kg/injection, schedule: Q04DX003 (ip), vehicle: other 99 % of control | dose: 200.0 mg/kg/injection, schedule: Q04DX003 (ip), vehicle: other 90 % of control | dose: 400.0 mg/kg/injection, schedule: Q04DX003 (ip), vehicle: other 103 % of control

CCN(CC)CCCC(C)Nc1cc(N)nc2nc(-c3ccccc3)c(-c3ccccc3)nc12 (centres undefined)
inactive: dose: 9.5 mg/kg/injection, schedule: Q01DX001 (ip), vehicle: other 89 % of control | dose: 38.0 mg/kg/injection, schedule: Q01DX001 (ip), vehicle: other 87 % of control | [14] 96 % of control

O=[N+]([O-])c1ccc2nc(=S)[nH]n2c1
inactive: [11] 97 % of control | [12] 93 % of control | [13] 98 % of control

NC(N)=N/N=C\c1ccc(CCC(=O)O)cc1
inactive: dose: 15.0 mg/kg/injection, schedule: Q01DX Z (ip), vehicle: carboxymethylcellulose (CMC) 97 % of control | dose: 30.0 mg/kg/injection, schedule: Q01DX Z (ip), vehicle: carboxymethylcellulose (CMC) 97 % of control | dose: 60.0 mg/kg/injection, schedule: Q01DX Z (ip), vehicle: carboxymethylcellulose (CMC) 101 % of control | dose: 120.0 mg/kg/injection, schedule: Q01DX Z (ip), vehicle: carboxymethylcellulose (CMC) 97 % of control | dose: 120.0 mg/kg/injection, schedule: Q01DX Z (oral), vehicle: carboxymethylcellulose (CMC) 113 % of control | dose: 240.0 mg/kg/injection, schedule: Q01DX Z (oral), vehicle: carboxymethylcellulose (CMC) 112 % of control | dose: 480.0 mg/kg/injection, schedule: Q01DX Z (oral), vehicle: carboxymethylcellulose (CMC) 109 % of control | dose: 960.0 mg/kg/injection, schedule: Q01DX Z (oral), vehicle: carboxymethylcellulose (CMC) 109 % of control

CCCCCC[As](=O)(O)CCCCCC
inactive: [9] 103 % of control

O/N=C1/CCCC/C1=C/c1ccc(Cl)cc1
inactive: [15] 104 % of control | [7] 111 % of control | [8] 88 % of control

CCOC(=O)NN(C(=O)OCC)c1c(NNC(C)=O)nc(N)[nH]c1=O
inactive: [10] 99 % of control | [16] 92 % of control | [17] 99 % of control

C[N+](C)(C)c1ccc(/C=N\O)cc1
inactive: dose: 6.25 mg/kg/injection, schedule: Q04DX003 (ip), vehicle: saline 95 % of control | dose: 12.5 mg/kg/injection, schedule: Q04DX003 (ip), vehicle: saline 102 % of control

CCC(CO)NC(=O)Nc1cccc2ccccc12 (centres undefined)
inactive: dose: 50.0 mg/kg/injection, schedule: Q04DX003 (ip), vehicle: saline with Tween-80 105 % of control | [15] 102 % of control | [1] 105 % of control | [7] 96 % of control | [2] 100 % of control | [8] 96 % of control | [3] 94 % of control

Cc1nc([Se]c2nc(C)n3ccncc23)c2cnccn12
inactive: [1] 98 % of control | [2] 95 % of control | [3] 93 % of control

BrCCOCCBr
inactive: dose: 25.0 mg/kg/injection, schedule: Q01DX009 (ip), vehicle: other 97 % of control | dose: 50.0 mg/kg/injection, schedule: Q01DX009 (ip), vehicle: other 92 % of control | dose: 100.0 mg/kg/injection, schedule: Q01DX009 (ip), vehicle: other 95 % of control

CC(C(=O)c1ccc(-c2ccccc2)cc1)C(Cl)c1ccccc1 (centres undefined)
inactive: [15] 106 % of control | [7] 94 % of control | [8] 97 % of control

COc1cc(C(C)S(=O)(=O)c2ccccc2)ccc1O (centres undefined)
inactive: [4] 97 % of control | [5] 97 % of control | [6] 103 % of control

O=C(O)c1cc(Cl)c(Br)c(Cl)c1
inactive: dose: 100.0 mg/kg/injection, schedule: Q04DX002 (ip), vehicle: Klucel (hydroxypropylcellulose) (HPC) 100 % of control | dose: 200.0 mg/kg/injection, schedule: Q04DX002 (ip), vehicle: Klucel (hydroxypropylcellulose) (HPC) 107 % of control
